Assays:
Format in all cases: in vivo, human
[1] = tested on: chronic hepatitis B (CHB) patients; assay: Time to clinical relapse after discontinuation of NUC treatment (Cox proportional hazard regression)
Description: (§1) Patients and Study Design: In this multi-center prospective study in Taiwan, 242 CHB patients were enrolled while in their last half year of a minimum 3-year treatment regimen with direct antivirals. Of them, 47 were excluded due to protocol violation, screening failure, lost to follow-up, withdrawal by the subject, use of immune related therapy, or on-treatment clinical relapse. An additional 14 were excluded as the analysis required patients to be hepatitis B e-antigen (HBeAg) negative, hepatitis virus (HBV) DNA < 60 IU/mL, and alanine transaminase (ALT) < 80 U/L at the last on-treatment visit, leaving 186 patients eligible for analysis.
(§2) Patients were followed for up to two years after treatment discontinuation while assessing virological and clinical relapse, provided that treatment was not re-initiated. Virological relapse was defined as HBV DNA ≥ 2000 IU/mL. Clinical relapse was defined as ALT level ≥ 2x ULN in addition to a virological relapse. A patient was denoted a sustained clinical responder in case no clinical and no virological relapse occurred during the entire follow-up period after treatment cessation.
(§3) Statistical Analysis: Continuous variables are presented as means ± standard deviations, categorical variables by counts and percentages. The Student t test and Fisher exact test were used to compare continuous and categorical covariates, respectively, between groups. Cumulative incidence of virological and clinical relapse after stop of treatment was assessed by Kaplan-Meier curves including the log-rank test. Cox proportional hazard regression analysis was applied for univariate and multivariate models of time to virological and clinical relapse. To assess associations to sustained clinical response, logistic regression analysis was performed. All statistical analyses were executed within the R(3.4.3) statistical software. Statistical tests were two-sided and considered significant at the 0.05 significance level.
(§4) Statistical Analysis of Genetics Data: All the statistical analyses were performed in R (3.4.3). The association between the SNPs and the time to clinical relapse and time to viral relapse was assessed using a Cox proportional hazard model, considering the prior treatment. • Surv(TIME_VIRAL_RELAPSE,STATUS_VIRAL_RELAPSE) ~ GENETIC + LAST_TREATMENT • Surv(TIME_CLINICAL _RELAPSE,STATUS_CLINICAL_RELAPSE) ~ GENETIC + LAST_TREATMENT
(§5) Merge With Genetic Data: For both clinical and virological relapse, the significant clinical covariates (Table 4 and Table 5) are merged with the corresponding significant hits from the GWAS analysis. Cox proportional regression analysis with lasso regularization is applied to assess the combined association of the clinical and genetic covariates to relapse. Note that a threshold was set to the absolute values of the coefficients to be included in the final Cox model, equal to 0.35 and 0.2 for clinical and virological relapse respectively.
(§6) Cumulative incidence of virological and clinical relapse after stop of treatment was assessed by Kaplan-Meier curves. In addition, Cox proportional hazard regression analysis (Therneau Terry M., et al., Statistics in Medicine. 2001, 20(13):2053-2054) was applied, obtaining univariate and multivariate models for time to virological and clinical relapse (model fits are provided in Table 23a and Table 23b for virological and clinical relapse respectively).
(§7) Statistical Analysis of Genetics Data: Considering that HBsAg status at the end of treatment and treatment regimen were predictive for onset of relapse, the association between the SNPs and onset of relapse was assessed using a Cox model^1 including HBsAg level at the last visit on treatment (high (≥ 100 IU/mL) vs. low (< 100 IU/mL)) and the antiviral treatment at enrollment (tenofovir vs. entecavir) as main effects. […]

[2] = tested on: chronic hepatitis B (CHB) patients; assay: Time to virological relapse after discontinuation of NUC treatment (Cox proportional hazard regression); conditions: for HR: hazard ratio for virological relapse after stop of treatment, treatment regimen tenofovir vs entecavir
Description: as §1, §2, §3, §4, §5, §6, §7

[3] = tested on: chronic hepatitis B (CHB) patients; assay: Sustained clinical response after discontinuation of NUC treatment (logistic regression)
Description: Patients and Study Design: In this multi-center prospective study in Taiwan, 242 CHB patients were enrolled while in their last half year of a minimum 3-year treatment regimen with direct antivirals. Of them, 47 were excluded due to protocol violation, screening failure, lost to follow-up, withdrawal by the subject, use of immune related therapy, or on-treatment clinical relapse. An additional 14 were excluded as the analysis required patients to be hepatitis B e-antigen (HBeAg) negative, hepatitis virus (HBV) DNA < 60 IU/mL, and alanine transaminase (ALT) < 80 U/L at the last on-treatment visit, leaving 186 patients eligible for analysis. Patients were followed for up to two years after treatment discontinuation while assessing virological and clinical relapse, provided that treatment was not re-initiated. Virological relapse was defined as HBV DNA ≥ 2000 IU/mL. Clinical relapse was defined as ALT level ≥ 2x ULN in addition to a virological relapse. […] Cumulative incidence of virological and clinical relapse after stop of treatment was assessed by Kaplan-Meier curves including the log-rank test. […] Considering that HBsAg status was representative of disease progression, the association between the SNPs and sustained clinical response was assessed using a logistic model, considering HBsAg levels (high (≥ 100 IU/mL) vs. low (< 100 IU/mL)) at the last visit before end of antiviral treatment. […]

[4] = tested on: chronic hepatitis B (CHB) patients; assay: Logistic regression model predicting clinical relapse before 6 months after stop of treatment; conditions: Table 12; model with treatment regimen, EOT HBsAg and all SNPs predicting CR
Procedure: Prediction of Clinical Relapse: The receiver operating characteristic (ROC) curve was analyzed for treatment regimen, EOT HBsAg (≥ 100 IU/mL vs < 100 IU/mL), rs4668818, rs948006, rs2934456, rs77586835, rs75876539, rs8050261, rs1542951, rs231770, rs9277535, or a combination of these covariates, in predicting clinical relapse (CR) after stop of treatment.

[5] = tested on: chronic hepatitis B (CHB) patients; assay: Logistic regression model predicting viral relapse before 3 months after stop of treatment; conditions: Table 13; model with treatment regimen, EOT HBsAg, baseline HBeAg status and all SNPs predicting VR
Procedure: Prediction of Virological Relapse: The receiver operating characteristic (ROC) curve was analyzed for treatment regimen, EOT HBsAg (≥ 100 IU/mL vs < 100 IU/mL), baseline HBeAg status, all 30 SNPs associated to virological relapse (VR), or a combination of these covariates, in predicting virological relapse (VR) after stop of treatment are represented on FIG. 22 (3 months), FIG. 23 (6 months), FIG. 24 (1 year) and FIG. 25 (2 years).

[6] = later after stopping entecavir treatment compared to tenofovir treatment, Example 1

SMILES: C=C1[C@H](CO)[C@@H](O)C[C@@H]1n1cnc2c(=O)[nH]c(N)nc21 [Entecavir, entecavir]
- Onset of clinical relapse, average delay ([1]; among the 110 clinical relapsers, later after stopping entecavir compared to tenofovir, Example 3): 100 days
- Onset of clinical relapse, average delay [1, 6]: 115 days
- Onset of virological relapse, average delay [2, 6]: 119 days

SMILES: C[C@H](Cn1cnc2c(N)ncnc21)OCP(=O)(O)O [Tenofovir, tenofovir]
- Clinical relapse, multivariate analysis HR (95% CI) ([1]; Table 4, Example 1, Cox regression, treatment regimen vs entecavir, after stop of treatment): 1.78 (1.20-2.64)
- Clinical relapse, multivariate analysis HR (95% CI) ([1]; Table 4, Example 1, Cox regression, treatment regimen vs entecavir, after stop of treatment, listed as tenofovir): 1.74
- Clinical relapse, univariate analysis HR (95% CI) ([1]; Table 4, Cox regression, treatment regimen vs entecavir, after stop of treatment, N = 186): 1.77 (1.19-2.62)
- Time to clinical relapse, lasso regression, mean estimated hazard ratio ([1]; Table 10, clinical and genetic covariates, mean across 1000 iterations, vs entecavir): 1.492
- Clinical relapse, multivariate analysis HR (95% CI) ([1]; Table 23b, Example 3, multivariate with age, EOT HBsAg, vs entecavir): 1.87 (1.26-2.78)
- Clinical relapse, multivariate analysis HR (95% CI) ([1]; Table 23b, Example 3, multivariate with age, EOT HBsAg, vs entecavir, listed as tenofovir): 1.80
- Clinical relapse, univariate analysis HR (95% CI) ([1]; Table 23b, Example 3, vs entecavir): 1.77 (1.19-2.62)
- Clinical relapse HR, Cox model including the Clinical SNP signature ([1]; Table 26b, HBsAg and treatment regimen as main effects plus six SNPs, vs entecavir): 1.89
- HR ([1]; hazard ratio for clinical relapse after stop of treatment, treatment regimen tenofovir vs entecavir, multivariate Cox model with HBsAg at end of treatment and all nine SNPs): 1.75
- Virological relapse, multivariate analysis HR (95% CI) ([2]; Table 5, Example 1, Cox regression, treatment regimen vs entecavir, after stop of treatment): 3.02
- Virological relapse, univariate analysis HR (95% CI) ([2]; Table 5, Cox regression, treatment regimen vs entecavir, after stop of treatment, N = 186): 2.49 (1.77-3.49)
- Time to virological relapse, lasso regression, mean estimated hazard ratio ([2]; Table 11, clinical and genetic covariates, mean across 1000 iterations, vs entecavir): 2.662
- Virological relapse, multivariate analysis HR (95% CI) ([2]; Table 23a, Example 3, multivariate with age, baseline HBeAg, EOT HBsAg, vs entecavir): 2.97 (2.10-4.20)
- Virological relapse, multivariate analysis HR (95% CI) ([2]; Table 23a, Example 3, multivariate with age, baseline HBeAg, EOT HBsAg, vs entecavir, listed as tenofovir): 2.97
- Virological relapse, univariate analysis HR (95% CI) ([2]; Table 23a, Example 3, vs entecavir): 2.49 (1.77-3.49)
- HR ([2]; multivariate Cox model with HBsAg at end of treatment and all 33 SNPs (Table 27a)): 7.26
- HR ([2]; multivariate Cox model with HBsAg at end of treatment and the 17 Virological signature SNPs (Table 27b)): 7.06
- Sustained clinical response, univariate analysis OR (95% CI) ([3]; Table 6, treatment regimen vs entecavir): 0.79 (0.29-2.03)
- Sustained clinical response, univariate analysis OR (95% CI) ([3]; Table 15, Example 2, vs entecavir): 0.79 (0.29-2.03)
- Clinical relapse before 6 months, odds ratio (Estimate) [4]: 4.008
- Viral relapse before 3 months, odds ratio (Estimate) [5]: 3010
